Target: T1, USP28 (USP28-5(1-1077)-TEV-6*His; LifeSensors) (Homo sapiens, UniProt Q96RU2)
T1 construct: construct USP28 (USP28-5(1-1077)-TEV-6*His; LifeSensors); TEV cleavage site (C); 6xHis (C); purchased LifeSensors
T1 sequence (Q96RU2 1-1077): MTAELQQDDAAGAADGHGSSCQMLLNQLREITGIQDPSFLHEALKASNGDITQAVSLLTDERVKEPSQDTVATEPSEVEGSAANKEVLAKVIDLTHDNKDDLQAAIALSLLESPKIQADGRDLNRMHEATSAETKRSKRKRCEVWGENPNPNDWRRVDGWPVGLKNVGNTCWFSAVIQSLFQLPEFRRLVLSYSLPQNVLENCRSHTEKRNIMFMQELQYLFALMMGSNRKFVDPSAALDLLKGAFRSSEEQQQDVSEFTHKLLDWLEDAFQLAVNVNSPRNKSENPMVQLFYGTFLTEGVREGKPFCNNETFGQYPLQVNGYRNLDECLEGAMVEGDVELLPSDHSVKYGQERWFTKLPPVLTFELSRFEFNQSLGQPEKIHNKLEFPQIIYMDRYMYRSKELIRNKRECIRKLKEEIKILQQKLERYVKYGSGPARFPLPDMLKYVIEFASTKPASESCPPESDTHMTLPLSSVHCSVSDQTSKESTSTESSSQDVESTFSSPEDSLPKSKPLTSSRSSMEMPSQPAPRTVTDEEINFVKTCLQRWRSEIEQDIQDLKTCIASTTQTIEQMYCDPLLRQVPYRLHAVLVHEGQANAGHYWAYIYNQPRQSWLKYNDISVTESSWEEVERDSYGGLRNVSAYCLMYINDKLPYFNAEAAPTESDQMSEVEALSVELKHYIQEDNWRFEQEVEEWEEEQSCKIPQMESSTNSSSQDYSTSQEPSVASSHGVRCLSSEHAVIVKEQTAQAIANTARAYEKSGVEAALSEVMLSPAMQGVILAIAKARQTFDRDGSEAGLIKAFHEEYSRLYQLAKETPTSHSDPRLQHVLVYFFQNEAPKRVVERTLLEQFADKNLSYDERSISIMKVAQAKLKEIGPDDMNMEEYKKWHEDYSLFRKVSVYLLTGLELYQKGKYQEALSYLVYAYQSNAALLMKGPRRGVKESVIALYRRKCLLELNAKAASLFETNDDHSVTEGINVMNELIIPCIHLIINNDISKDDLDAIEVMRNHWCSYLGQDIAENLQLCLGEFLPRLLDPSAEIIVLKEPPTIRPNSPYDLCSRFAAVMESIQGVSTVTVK
Assay: Ubiquitin-Rhodamine 110 Assay for USP28 Activity, Example A-1(b)
Assay type: biochemical
Experimental: Example A-1(b): Biochemical Assay: Ubiquitin-Rhodamine 110 Assay for USP28 Activity
Each assay was performed in a final volume of 20 μL in assay buffer containing 20 mM Tris-HCl (pH 8.0, (1M Tris-HCl, pH 8.0 solution; Corning 46-031-CM)), 2 mM CaCl2 (1M Calcium Chloride solution; Sigma #21114) 2 mM BME (2-Mercaptoethanol; Sigma 63689-25ML-F), 0.01% Prionex (0.22 μM filtered, Sigma #G-0411), and 0.01% Triton X-100. Stock compound solutions were stored at −20° C. as 10 mM in DMSO. Up to 1 month prior to the assay, 2 mM test compounds were pre-dispensed into assay plates (Black, low volume; Corning #3820) and frozen at −20° C. Prestamped assay plates were allowed to come to room temperature on the day of the assay. For the screen, 100 nL of 2 mM was pre-dispensed for a final screening concentration of 10 μM (DMSO(fc)=0.5%). […] Plates were incubated stacked for 90 minutes at room temperature before fluorescence was read on the Envision (Excitation at 485 nm and Emission at 535 nm; Perkin Elmer) or on the PheraSTAR (Excitation at 485 nm and Emission at 535 nm; BMG Labtech).
For follow-up studies, each assay was performed in a final volume of 15 μL in assay buffer containing 20 mM Tris-HCl (pH 8.0, (1M Tris-HCl, pH 8.0 solution; Corning 46-031-CM)), 3 mM BME (2-Mercaptoethanol; Sigma 63689-25ML-F), 0.03% BGG (0.22 μM filtered, Sigma, G7516-25G), and 0.01% Triton X-100 (Sigma, T9284-10L). Nanoliter quantities of either an 8-point or 10-point, 3-fold serial dilution in DMSO was pre-dispensed into assay plates (Perkin Elmer, ProxiPlate-384 F Plus, #) for a final test concentration of either 25 μM to 11 nM or 25 μM to 1.3 nM, respectively. Enzyme USP28, construct USP28 (USP28-5(1-1077)-TEV-6*His; LifeSensors) concentration and incubation times were optimized for the maximal signal-to-background while maintaining initial velocity conditions at a fixed substrate concentration. The final concentration of the enzyme in the assay was […]. Final substrate (Ub-Rh110; Ubiquitin-Rhodamine 110, R&D Systems #U-555) concentration was 25 nM with [Ub-Rh110]<<Km. 5 μL of 2× enzyme was added to assay plates (pre-stamped with compound) preincubated with USP28 for 30 minutes and then 5 μL of 2× Ub-Rh110 was added to assay plates. Plates were incubated stacked for 20 minutes at room temperature before 5 μL of stop solution was added (final concentration of 10 mM citric acid (Sigma, 251275-500G)). Fluorescence was read on the Envision (Excitation at 485 nm and Emission at 535 nm; Perkin Elmer) or on the PheraSTAR (Excitation at 485 nm and Emission at 535 nm; BMG Labtech).
For assay formats Example A-1(a), A-1(b), and A-2, data were reported as percent inhibition compared with control wells based on the following equation: % inh=1−((FLU−AveLow)/(AveHigh−AveLow)) where FLU=measured Fluorescence, AveLow=average Fluorescence of no enzyme control (n=16), and AveHighh=average Fluorescence of DMSO control (n=16). IC50 values were determined by curve fitting of the standard 4 parameter logistic fitting algorithm included in the Activity Base software package: IDBS XE Designer Model 205. Data is fitted using the Levenburg Marquardt algorithm.

SMILES | USP28 A-1(b) IC50 range
CN[C@H]1CCN(c2ccc3c(c2)CC[C@H](NC(=O)c2sc4nc(C)cnc4c2N)C3)C1 (single isomer, unassigned) [Example 11-25] | ++ (“++”: 0.2-2 μM)
Cc1ccc2c(N)c(C(=O)N[C@H]3COc4cc(N5CCNCC5)ccc4[C@@H]3C)sc2n1 (single isomer, unassigned) [Example 11-16] | + (“+”L>2 μM)
Cc1cnc2c(N)c(C(=O)N[C@H]3CCc4cc(N5C[C@@H]6C[C@H]5CN6)ccc4C3)sc2n1 (single isomer, unassigned) [Example 11-29] | ++ (“++”: 0.2-2 μM)
Cc1cnc2c(N)c(C(=O)N[C@@H]3CCc4cc(N5C[C@H]6C[C@@H]5CN6)ccc4C3)sc2n1 (single isomer, unassigned) [Example 11-32] | ++ (“++”: 0.2-2 μM)
Cc1nc2sc(C(=O)N[C@H]3CCc4cc(N5CCNCC5)ccc4C3)c(N)c2s1 (single isomer, unassigned) [Example 11-33] | + (“+”L>2 μM)
Cc1cnc2c(N)c(C(=O)N[C@@H]3CCc4cc(N5CCNCC5)c(F)cc4C3)sc2n1 (single isomer, unassigned) [Example 21-11] | ++ (“++”: 0.2-2 μM)
Cc1cnc2c(N)c(C(=O)N[C@@H]3CCc4c(ccc(N5CCNCC5)c4F)C3)sc2n1 (single isomer, unassigned) [Example 21-9] | ++ (“++”: 0.2-2 μM)
Cc1ccc2c(N)c(C(=O)N[C@@H]3CCc4cc(N5CC6CNCC(C5)O6)cc(F)c4C3)sc2n1 (single isomer, unassigned) [Example 11-40] | ++++ (“++++”: 0.001-0.05 μM)
Cc1ccc2c(N)c(C(=O)N[C@H]3COc4cc(N5CCNCC5)ccc4[C@H]3C)sc2n1 (single isomer, unassigned) [Example 11-15] | + (“+”L>2 μM)
Cc1ccc2c(N)c(C(=O)N[C@H]3CCc4cc(N5CCNCC5)ccc4C3)sc2n1 (single isomer, unassigned) [Example 11-21] | ++ (“++”: 0.2-2 μM)
Cc1cnc2c(N)c(C(=O)N[C@H]3CCc4cc(N5CCNCC5)c(F)cc4C3)sc2n1 (single isomer, unassigned) [Example 21-12] | ++++ (“++++”: 0.001-0.05 μM)
Cc1cnc2c(N)c(C(=O)N[C@H]3CCc4cc(N5CCNCC5)cc(F)c4C3)sc2n1 (single isomer, unassigned) [Example 11-38] | +++ (“+++”: 0.05-0.2 μM)
CN[C@H]1CCN(c2ccc3c(c2)CC[C@@H](NC(=O)c2sc4nc(C)cnc4c2N)C3)C1 (single isomer, unassigned) [Example 11-26] | + (“+”L>2 μM)
Cc1ccc2c(N)c(C(=O)N[C@@H]3CCc4c(C#N)c(N5CCNCC5)cc(F)c4C3)sc2n1 (single isomer, unassigned) [Example 14-9] | + (“+”L>2 μM)
Cc1cnc2c(N)c(C(=O)N[C@H]3CCc4c(ccc(N5CCNCC5)c4F)C3)sc2n1 (single isomer, unassigned) [Example 21-10] | + (“+”L>2 μM)
Cc1ccc2c(N)c(C(=O)N[C@@H]3CCc4cc(N5CCNCC5)ccc4C3)sc2n1 (single isomer, unassigned) [Example 11-22] | ++ (“++”: 0.2-2 μM)
Cc1ccc2c(N)c(C(=O)N[C@H]3COc4cc(N5CCNCC5)ccc4[C@@H]3C)sc2n1 (single isomer, unassigned) [Example 11-17] | + (“+”L>2 μM)
Cc1nc2sc(C(=O)N[C@@H]3CCc4cc(N5CCNCC5)ccc4C3)c(N)c2s1 (single isomer, unassigned) [Example 11-34] | ++ (“++”: 0.2-2 μM)
Cc1ccc2c(N)c(C(=O)N[C@H]3CCc4c(C#N)c(N5CCNCC5)cc(F)c4C3)sc2n1 (single isomer, unassigned) [Example 14-10] | +++ (“+++”: 0.05-0.2 μM)
Cc1cnc2c(N)c(C(=O)N[C@@H]3CCc4cc(N5C[C@@H]6C[C@H]5CN6)ccc4C3)sc2n1 (single isomer, unassigned) [Example 11-30] | ++ (“++”: 0.2-2 μM)
Cc1cnc2c(N)c(C(=O)N[C@@H]3CCc4cc(N5CCNCC5)cc(F)c4C3)sc2n1 (single isomer, unassigned) [Example 11-37] | + (“+”L>2 μM)
CN[C@@H]1CCN(c2ccc3c(c2)CC[C@@H](NC(=O)c2sc4nc(C)cnc4c2N)C3)C1 (single isomer, unassigned) [Example 11-28] | + (“+”L>2 μM)
Cc1ccc2c(N)c(C(=O)N[C@@H]3COc4cc(N5CCNCC5)ccc4[C@@H]3C)sc2n1 (single isomer, unassigned) [Example 11-18] | + (“+”L>2 μM)
Cc1cnc2c(N)c(C(=O)N[C@H]3CCc4cc(N5CCNCC5)ccc4C3)sc2n1 (single isomer, unassigned) [Example 11-19] | ++ (“++”: 0.2-2 μM)
CN[C@@H]1CCN(c2ccc3c(c2)CC[C@H](NC(=O)c2sc4nc(C)cnc4c2N)C3)C1 (single isomer, unassigned) [Example 11-27] | ++ (“++”: 0.2-2 μM)
Cc1cnc2c(N)c(C(=O)N[C@H]3CCc4cc(N5C[C@H]6C[C@@H]5CN6)ccc4C3)sc2n1 (single isomer, unassigned) [Example 11-31] | ++ (“++”: 0.2-2 μM)
Cc1ccc2c(N)c(C(=O)N[C@H]3CCc4cc(N5CC6CNCC(C5)O6)cc(F)c4C3)sc2n1 (single isomer, unassigned) [Example 11-39] | ++ (“++”: 0.2-2 μM)
Cc1cnc2c(N)c(C(=O)N[C@@H]3CCc4cc(N5CCNCC5)ccc4C3)sc2n1 (single isomer, unassigned) [Example 11-20] | + (“+”L>2 μM)

— US12162888B2, “Carboxamides as ubiquitin-specific protease inhibitors” (Valo Early Discovery, Inc., priority 2018, dated 2024)
